Test results as given in article PMC7038240 (Antimicrobial Agents and Chemotherapy, 2020).
Read-outs that look alike come from different tables or passages of the source.

Experiments:
Assay in all cases: microbe, parasite or virus in culture
Type in all cases: cell-based
K. pneumoniae = settings: Klebsiella pneumoniae, read-out: MIC
Description: (§1) The antibacterial activity of cefepime-taniborbactam was compared to that of ceftazidime-avibactam, ceftolozane-tazobactam, and cefepime-tazobactam against a diverse panel of Enterobacterales and P. aeruginosa clinical isolates with defined β-lactamase subtypes (see Table S1 in the supplemental material). IMP-producing strains were excluded, as none of the BLI-protected cephalosporins inhibited IMP sufficiently to provide a clinically relevant rescue of the partner β-lactam, a characteristic also shared by approved BLI-protected carbapenems (meropenem-vaborbactam and imipenem-relebactam). […] The antibacterial activity of the cephalosporins alone was included to ascertain the level of potentiation by the partnered BLI. BLIs were tested at a fixed concentration of 4 μg/ml in all combinations except cefepime-tazobactam, where tazobactam was fixed at a concentration of 8 μg/ml ([38]). The collection comprised 143 clinical isolates collected from 2005 and 2018.
(§2) The in vitro antibacterial activity of the β-lactams alone or in combination with the BLIs was determined in cation-adjusted Mueller-Hinton broth (CAMHB) microdilution assays according to CLSI recommendations ([51]). […]. The inocula for the broth microdilution assays were prepared by the broth culture method ([51]). […]

S. marcescens = settings: Serratia marcescens
Description: as §1, §2

E. coli = settings: Escherichia coli, read-out: MIC
Description: as §1, §2

CO/N=C(\C(=O)N[C@@H]1C(=O)N2C(C(=O)[O-])=C(C[N+]3(C)CCCC3)CS[C@H]12)c1csc(N)n1 [FEP]
MIC (K. pneumoniae; ATCC13883, K. pneumoniae ATCC 13883, enzyme content None): 0.06 µg/mL
MIC (K. pneumoniae; BAA1705, K. pneumoniae BAA 1705, KPC-2): 16 µg/mL
MIC (K. pneumoniae; K. pneumoniae CDC-0049 (NDM), BLI fixed at 4 μg/ml): 256 µg/mL
MIC (K. pneumoniae; strain 6299, OXA-163): 64 µg/mL
MIC (K. pneumoniae; strain 137052, SHV-11/KPC-3/TEM-1): 16 µg/mL
MIC (K. pneumoniae; strain 178279, SHV-12/TEM-1/AmpC): 8 µg/mL
MIC (K. pneumoniae; strain 196477, AmpC): 16 µg/mL
MIC (K. pneumoniae; strain 212027, AmpC/FOX-5/TEM-1): 2 µg/mL
MIC (K. pneumoniae; strain 515746, OXA-48): 32 µg/mL
MIC (K. pneumoniae; strain 664438, OXA-48): 32 µg/mL
MIC (K. pneumoniae; strain 664439, OXA-48): 32 µg/mL
MIC (K. pneumoniae; strain 722870, OXA-48): 8 µg/mL
MIC (K. pneumoniae; strain 752334, OXA-48): 128 µg/mL
MIC (K. pneumoniae; strain 769972, OXA-48): 16 µg/mL
MIC (K. pneumoniae; strain 787422, OXA-48): 64 µg/mL
MIC (K. pneumoniae; strain 845661, KPC): ≥ 256 µg/mL
MIC (K. pneumoniae; strain 847204, KPC): 32 µg/mL
MIC (K. pneumoniae; strain 848562, KPC): ≥ 256 µg/mL
MIC (K. pneumoniae; strain 848600, KPC): ≥ 256 µg/mL
MIC (K. pneumoniae; strain 848828, KPC): ≥ 256 µg/mL
MIC (K. pneumoniae; strain 849170, KPC): ≥ 256 µg/mL
MIC (K. pneumoniae; strain 856819, SHV-11/VIM-1): 32 µg/mL
MIC (K. pneumoniae; strain 864085, KPC): 32 µg/mL
MIC (K. pneumoniae; strain 871489, KPC): ≥ 256 µg/mL
MIC (K. pneumoniae; strain 873460, SHV-30/CTX-M-15): 32 µg/mL
MIC (K. pneumoniae; strain 874328, SHV-11/CTX-M-15/NDM-1): 128 µg/mL
MIC (K. pneumoniae; strain 882752, SHV-11/TEM-1/KPC-3): 128 µg/mL
MIC (K. pneumoniae; strain 882956, SHV-31/DHA-1/VIM-1): 16 µg/mL
MIC (K. pneumoniae; strain 884679, KPC): 32 µg/mL
MIC (K. pneumoniae; strain 890066, SHV-33/TEM-33/CTX-M-15/IMP-1): 64 µg/mL
MIC (K. pneumoniae; strain 892694, SHV-12/TEM-1/CTX-M-15/OXA-48/ACT): 32 µg/mL
MIC (K. pneumoniae; strain 919877, SHV-OSBL/VIM-1): 128 µg/mL
MIC (K. pneumoniae; strain 1104864, SHV-OSBL(b)/VIM-1): ≥ 256 µg/mL
MIC (K. pneumoniae; strain 1104866, SHV-OSBL(b)/VIM-1): ≥ 256 µg/mL
MIC (K. pneumoniae; strain 1280442, SHV-OSBL(b)/VIM-1): 16 µg/mL
MIC (K. pneumoniae; strain CDC-0003, KPC): 32 µg/mL
MIC (K. pneumoniae; strain CDC-0049, NDM): ≥ 256 µg/mL
MIC (K. pneumoniae; strain CDC-0117, KPC-3): 64 µg/mL
MIC (K. pneumoniae; strain CDC-0125, KPC-3): 64 µg/mL
MIC (K. pneumoniae; strain CDC-0139, NDM-1): ≥ 256 µg/mL
MIC (K. pneumoniae; strain CDC-0145, NDM): ≥ 256 µg/mL
MIC (K. pneumoniae; strain CDC-0148, NDM): 128 µg/mL
MIC (K. pneumoniae; strain CDC-0152, NDM): ≥ 256 µg/mL
MIC (K. pneumoniae; strain DOV, OXA-48): 32 µg/mL
MIC (K. pneumoniae; strain ESBL8 #1, TEM-1/SHV-12): 4 µg/mL
MIC (K. pneumoniae; strain ESBL 10, SHV-12/TEM-1): 8 µg/mL
MIC (K. pneumoniae; strain KIRK, OXA-162): 16 µg/mL
MIC (K. pneumoniae; strain KP 3, SHV-1/TEM-1): 16 µg/mL
MIC (K. pneumoniae; strain KPN 508, SHV-7/TEM-1): 8 µg/mL
MIC (K. pneumoniae; strain SI-C05, OXA-48): 16 µg/mL
MIC (K. pneumoniae; strain SI-F100, SHV-5/TEM-1/CMY-2): 1 µg/mL
MIC (K. pneumoniae; strain SI-KP NO30, TEM-26b/SHV-60/SHV-26): 16 µg/mL
MIC (S. marcescens; strain 134434, AmpC/SHV-12/TEM-1): 4 µg/mL
MIC (S. marcescens; strain 192476, AmpC/TEM-1/SHV-5): 4 µg/mL
MIC (S. marcescens; strain 192478, AmpC/SHV-12/TEM-1): 4 µg/mL
MIC (S. marcescens; strain 218073, AmpC/SHV-7/TEM-1): 2 µg/mL
MIC (E. coli; ATCC25922, E. coli ATCC 25922, enzyme content None): 0.06 µg/mL
MIC (E. coli; E. coli CDC-0452, NDM): 64 µg/mL
MIC (E. coli; NCTC13353, E. coli NCTC 13353, CTX-M-15): 64 µg/mL
MIC (E. coli; strain 469, AmpC/SHV-12/TEM-1): 1 µg/mL
MIC (E. coli; strain 1924, TEM-12): 16 µg/mL
MIC (E. coli; strain 664507, OXA-48): 16 µg/mL
MIC (E. coli; strain 664516, OXA-48): 64 µg/mL
MIC (E. coli; strain 664520, OXA-48): 32 µg/mL
MIC (E. coli; strain 664522, OXA-48): 64 µg/mL
MIC (E. coli; strain 664523, OXA-48): 128 µg/mL
MIC (E. coli; strain 849121, KPC): 64 µg/mL
MIC (E. coli; strain 873435, CTX-M-15): 128 µg/mL
